In ChEMBL document CHEMBL5579878, “Allosteric Activation of Protein Phosphatase 5 with Small Molecules” (J Med Chem, 2024):
Where a chain is given by its changes, count along the chain named. Active and inactive are the calls of the source. No cut-off for these calls is given here.

Tests used:
HCT-116 [1] = assay: Downregulation of AT13387-induced HSP70 expression in PP5 Knockout human HCT-116 cells at 50 uM incubated for 24 hrs by Western blot analysis; assay type: functional, cell-based
HCT-116 [2] = assay: Antitumor activity against human HCT-116 cells xenografted in BALB/c nude mouse at 60 mg/kg, ip administered every other day for 14 days; assay type: functional, organism-based; conditions: time 14.0 day
HCT-116 [3] = assay: Downregulation of AT13387-induced HSP27 mRNA expression in human HCT-116 cells at 50 uM incubated for 24 hrs by qRT-PCR analysis; assay type: functional, cell-based
[4] = biological target: T1, Serine/threonine-protein phosphatase 5 (Homo sapiens) (UniProt P53041); assay: Binding affinity to human PP5 extracted from Escherichia coli BL21 using CDC37 as substrate assessed as increase in dephosphorylation of p-CDC37 at S13 residue incubated for 1 hrs by Western blot analysis; conditions: filed as activator, dose 5-50 µM
T1 sequence (whole entry): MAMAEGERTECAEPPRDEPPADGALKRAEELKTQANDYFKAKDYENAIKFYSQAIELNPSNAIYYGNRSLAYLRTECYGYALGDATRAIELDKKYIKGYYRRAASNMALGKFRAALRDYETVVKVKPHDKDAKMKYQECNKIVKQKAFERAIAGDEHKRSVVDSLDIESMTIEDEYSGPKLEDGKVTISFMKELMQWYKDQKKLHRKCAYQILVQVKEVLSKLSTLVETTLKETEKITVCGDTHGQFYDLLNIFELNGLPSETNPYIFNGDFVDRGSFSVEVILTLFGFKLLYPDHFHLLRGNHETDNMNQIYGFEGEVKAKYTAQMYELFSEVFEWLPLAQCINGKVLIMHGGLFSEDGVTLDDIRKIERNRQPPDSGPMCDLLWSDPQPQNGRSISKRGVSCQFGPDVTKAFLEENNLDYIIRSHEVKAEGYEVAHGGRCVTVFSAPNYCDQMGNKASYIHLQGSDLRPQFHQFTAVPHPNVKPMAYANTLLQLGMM

HCT-116 [5] = assay: Downregulation of AT13387-induced HSP27 expression in PP5 Knockout human HCT-116 cells at 50 uM incubated for 24 hrs by Western blot analysis; assay type: functional, cell-based
[6] = biological target: T1, Serine/threonine-protein phosphatase 5 (Homo sapiens); assay: Binding affinity to human PP5 extracted from Escherichia coli BL21 using CDC37 as substrate assessed as increase in dephosphorylation of p-CDC37 at S13 residue at 25 uM by Western blot analysis; conditions: filed as activator, time 0.5-2 hrs, TDE = time-dependent effect
[7] = biological target: T1, Serine/threonine-protein phosphatase 5 (Homo sapiens); assay: Binding affinity to His-tagged human PP5 extracted from Escherichia coli BL21 at 200 uM by STD-NMR analysis; conditions: filed as activator
[8] = biological target: Dual specificity protein phosphatase 3 (Homo sapiens) (UniProt P51452); assay: Inhibition of DUSP3 (unknown origin) using DiFMUP as substrate at 0.01 to 1000 uM; conditions: dose 0.01-1000 µM
Chain of Dual specificity protein phosphatase 3 (Homo sapiens) (P51452 whole entry, looked up): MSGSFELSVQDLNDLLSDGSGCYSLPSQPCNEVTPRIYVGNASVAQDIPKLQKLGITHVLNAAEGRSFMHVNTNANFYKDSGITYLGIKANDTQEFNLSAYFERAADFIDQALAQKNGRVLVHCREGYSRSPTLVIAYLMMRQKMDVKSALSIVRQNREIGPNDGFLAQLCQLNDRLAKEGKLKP

[9] = biological target: T2, Hsp90 co-chaperone Cdc37 (Homo sapiens) (UniProt Q16543); assay: Induction of CDC37 dephosphorylation at S13 residue in PP5-KO human HCT-116 cells upto 100 uM incubated for 24 hrs by Western blot analysis; assay type: cell-based
T2 sequence (whole entry): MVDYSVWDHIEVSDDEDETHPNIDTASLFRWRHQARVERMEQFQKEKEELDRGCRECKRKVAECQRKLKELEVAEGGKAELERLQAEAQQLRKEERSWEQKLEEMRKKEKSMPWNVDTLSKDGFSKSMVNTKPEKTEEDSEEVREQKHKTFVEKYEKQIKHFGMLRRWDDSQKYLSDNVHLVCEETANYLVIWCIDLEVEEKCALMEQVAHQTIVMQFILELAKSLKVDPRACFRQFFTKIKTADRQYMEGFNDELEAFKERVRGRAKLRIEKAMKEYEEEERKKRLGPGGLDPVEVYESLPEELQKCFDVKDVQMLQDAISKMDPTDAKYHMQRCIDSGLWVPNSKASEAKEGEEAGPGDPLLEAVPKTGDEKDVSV

[10] = biological target: T3, Serine/threonine-protein phosphatase 5 (Homo sapiens, UniProt P53041); assay: Activation of His-tagged human PP5 extracted from Escherichia coli BL21 using pNPP as substrate assessed as increase in phosphatase activity incubated for 30 mins by spectrophotometric analysis
T3 sequence (P53041 whole entry): T1 sequence (whole entry)

[11] = biological target: Serine/threonine-protein phosphatase PP1-beta catalytic subunit (Homo sapiens) (UniProt P62140); assay: Inhibition of PP1B (unknown origin) using DiFMUP as substrate at 0.01 to 1000 uM; conditions: dose 0.01-1000 µM
Chain of Serine/threonine-protein phosphatase PP1-beta catalytic subunit (Homo sapiens) (P62140 whole entry): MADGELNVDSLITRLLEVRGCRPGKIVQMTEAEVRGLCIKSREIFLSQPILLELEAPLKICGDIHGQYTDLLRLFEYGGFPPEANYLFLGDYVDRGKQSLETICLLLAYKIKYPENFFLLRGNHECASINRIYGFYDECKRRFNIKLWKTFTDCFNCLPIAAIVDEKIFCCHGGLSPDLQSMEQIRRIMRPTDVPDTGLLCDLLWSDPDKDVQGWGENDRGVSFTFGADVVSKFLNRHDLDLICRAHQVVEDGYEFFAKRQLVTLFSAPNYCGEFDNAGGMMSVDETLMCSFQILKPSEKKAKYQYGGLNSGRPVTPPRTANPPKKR

Homo sapiens = species: Homo sapiens; assay: Inhibition of PP2A (unknown origin) using DiFMUP as substrate at 0.01 to 1000 uM; conditions: dose 0.01-1000 µM
[12] = biological target: T1, Serine/threonine-protein phosphatase 5 (Homo sapiens); assay: Binding affinity to His-tagged human PP5 TPR domain extracted from Escherichia coli BL21 by ITC analysis
HCT-116 [13] = assay: Downregulation of AT13387-induced HSP40 mRNA expression in human HCT-116 cells at 50 uM incubated for 24 hrs by qRT-PCR analysis; assay type: functional, cell-based
SW-620 [14] = assay: Enhancement of HSP90 inhibitor AT13387-induced antiproliferative activity against human SW620 cells assessed as fold change in HSP90 inhibitor AT13387 IC50 at 50 uM incubated for 72 hrs by CCK8 assay; assay type: functional
SW-620 [15] = assay: Antiproliferative activity against human SW620 cells assessed as inhibition of cell proliferation at 1 to 100 uM incubated for 72 hrs by CCK8 assay; assay type: functional, cell-based; conditions: dose 1-100 µM
HCT-116 [16] = assay: Downregulation of AT13387-induced HSP70 expression in human HCT-116 cells at 50 uM incubated for 24 hrs by Western blot analysis; assay type: functional, cell-based
[17] = tested on: T4, Serine/threonine-protein phosphatase 5 (Homo sapiens), P53041 [V429A]; assay: Binding affinity to PP5 V429A mutant (unknown origin) by ITC analysis
T4 sequence (whole entry): T1 sequence (whole entry) with V429A

Question: How did the Activity (HCT-116 [1]) turn out when N=c1oc2cc(F)cc(F)c2cc1C(N)=S was run?
Answer: inactive

Question: What about the Activity (HCT-116 [2]) of the same molecule?
Answer: inactive

Question: What about the Activity (HCT-116 [3]) of the same molecule?
Answer: Active

Question: And the Activity [4]?
Answer: Dose-Dependent Effect

Question: What about the Activity (HCT-116 [5]) of the same molecule?
Answer: inactive

Question: What about the Activity [6] of the same molecule?
Answer: Tde

Question: And the Activity [7]?
Answer: Active

Question: What about the inhibition [8] of the same molecule?
Answer: inactive

Question: What about the Activity [9] of the same molecule?
Answer: inactive

Question: And the EC50 [10]?
Answer: 52.8 µM

Question: What about the inhibition [11] of the same molecule?
Answer: inactive

Question: What about the inhibition (Homo sapiens) of the same molecule?
Answer: inactive

Question: And the Activity [12]?
Answer: inactive

Question: And the Activity (HCT-116 [13])?
Answer: Active

Question: And the “fold change (FC)” value (SW-620 [14])?
Answer: 2

Question: And the Activity (SW-620 [15])?
Answer: inactive

Question: What about the Activity (HCT-116 [16]) of the same molecule?
Answer: Active

Question: What about the Activity [17] of the same molecule?
Answer: inactive
